Laboratory results as given in patent publication US20230020329A1, “Annelated 9-hydroxy-1,8-dioxo-1,3,4,8-tetrahydro-2H-pyrido[1,2-a]pyrazine-7-carboxamides as HIV integrase inhibitors, methods of preparation and application thereof” (priority 2019, published 2023).
Values after ≈ are worked out from the molar mass of the structure shown. Where two headings read alike, the source gives them in different places. Values belong to the compound of their own block, whether it stands above or below them.

Columns and labels:
HIV [1] = details: read-out: EC50 in WO 2014/100323; cited from earlier work
HIV [2] = details: depending on the method of analysis; read-out: Inhibitory activity EC50 (literature); cited from earlier work
[3] = Thermodynamic (shake-flask) solubility; type: physicochemical; details: for solubility at 24 h: thermodynamic from solid
Experimental: The test compound of general formula 1 or 2 (2 mg) was weighed into a glass vial. The pION universal buffer (0.5 ml) with pH 7.4 or deionized water was added to appropriate vials. The vials were tightly closed with a lid, placed on a rotating shaker, and incubated for 24 hours to balance the solution and the solid phase at the saturation point. Each resulting solution (200 μl) was taken (in duplicate) from the vials, placed in a 96-well MultiScreen Solubility Filter Plate (Millipore), and filtered using vacuum ([…]) into a polypropylene plate with a U-shaped bottom. If necessary, the filtrates were diluted with an appropriate buffer (water). Then, 120 μl of the filtarate (or a diluted filtrate) was transferred to a 96-well plate with a UV-transparent bottom and 60 μl/well of acetonitrile and 20 μl/well of DMSO were added and thoroughly mixed with a multichannel pipette (acetonitrile and DMSO were added to obtain a required composition of calibration standards, as described below). The optical density of the resulting solutions was measured on a multifunction Infinite 200 PRO plate reader in the wavelength range from 240 nm to 400 nm in steps of 10 nm. The value of ODλ for solutions was assessed at a wavelength chosen for plotting a calibration curve.
The concentration of a substance in the solution after the solubility test was evaluated using a calibration curve. A stock solution in DMSO with a concentration of 2 mg/ml was prepared from a separate sample. […] The range of final concentrations of the calibration curve was 0.2; 0.1; 0.05; 0.025; 0.0125; 0.00625, and 0 mg/ml. Calibration solutions were prepared in a 96-well UV plate as follows: 20 μl of a 10-fold stock solution in DMSO, 60 μl of acetonitrile, and 120 μl of the appropriate buffer were added to the well and stirred. The optical density of the resulting solutions was measured on a multifunction Infinite 200 PRO plate reader in the wavelength range from 240 nm to 400 nm with a step of 10 nm. The optimal wavelength typically corresponding to the absorption maximum was chosen, and a linear dependence of OD at a given wavelength on the concentration of the compound was obtained.
The concentration of the compound in the filtrate after the solubility test was calculated according to the formula:
shake-flask solubility=(ODλfiltrate−ODλblank)/(slope×1.67×filtrate dilution)
wherein slope means the slope of the calibration curve; 1.67 is the filtrate acetonitrile+DMSO dilution ratio; filtrate dilution is an additional dilution of the filtrate, if applicable.

[4] = Pharmacokinetics in rat plasma, IV and oral; type: in vivo, male Sprague-Dawley rats; details: for Cmax: read-out: Cmax; for Tmax: read-out: Tmax
Experimental: The research was carried out on male Sprague-Dawley rats obtained from Charles River Laboratories (Germany). […] The age of the animals at the time of administration was 8-10 weeks. The animals were pre-catheterized so that all blood samples during the study of each substance could be taken from the same animals. Each substance was tested in 3 animals at each route of administration. The solution of test substances with a concentration of 0.2 mg/ml in 10% DMSO/10% Solutol/80% 0.05M N-methylglucamine was administered to rats intravenously in the tail vein at a dose of 1 mg/kg. Blood samples were collected at 5, 15, 30 min, 1, 2, 4, 8, and 24 hours after administration. Intragastric administration involved gavage using a solution with a concentration of 0.5 mg/ml in 0.5% methylcellulose at a dose of 5 mg/kg. Blood samples were collected at 15, 30 min, 1, 2, 4, 8, and 24 hours after administration. Blood (0.2 ml) was collected in polypropylene tubes containing 20 μl of 5% NaEDTA. Blood plasma was separated by centrifugation at 1500×g for 10 min and stored until testing at a temperature of −80° C. A pure acetonitrile-water (1:1) mixture (5 μl) was added to 45 μl of test samples. The samples were vortexed thoroughly for 10 seconds. Tolbutamide (100 μl) chilled to +4° C. (200 ng/ml in MeCN) was added to the samples and the mixture was vortexed. The samples were precipitated on ice at +4° C. for 15 minutes and then centrifuged at 2700 g for 10 min at +4° C. Supernatants (100 μl each) were transferred to a blank plate for HPLC/MS/MS analysis. The HPLC/MS/MS analysis was performed using an Agilent 1290 Infinity system coupled to an AB Sciex QTrap 6500 mass spectrometer. Pharmacokinetic analysis of plasma concentration vs time data was performed by a model-independent method using the Phoenix™ WinNonlin® 6.3 software (Pharsight Corp.). […]

[5] = system: HIV-1 (NL4.3 strain) carrying the GFP reporter gene (NL4.3-GFP); assay: HIV-1 NL4.3-GFP infection of SupT1 cells; type: cell-based; details: Human immunodeficiency virus 1, SUP-T1, read-out: Inhibitory activity (EC50) of HIV-1 (NL4.3 strain) carrying the GFP reporter gene
Experimental: 6. Inhibitory Activity of HIV-1 (NL4.3 Strain) Carrying the GFP Reporter Gene (NL4.3-GFP) in the SuPT1 Cell Line.
The evaluation was done by RetroVirox Inc. (San Diego, Calif., USA). SupT1 cells were infected with the HIV NL4.3 strain carrying the green fluorescent protein gene (NL4.3-GFP). The virus sample was produced by transfection of 293T cells with proviral DNA. The sample was frozen 48 hours after transfection and stored until use. To enhance the efficiency of infection, a suspension of SupT1 cells was precipitated from the infectious mixture by centrifugation. Test substances were added to the cells immediately before adding the virus. After 2 hours of incubation, the infectious mixture was replaced with a fresh culture medium containing test samples. The effectiveness of the infection was determined after 45 hours by counting the percentage of fluorescent cells in comparison with uninfected cell cultures. The cytotoxicity of the test compounds was determined in parallel on the same, but not infected, SupT1 cell line using the XTT reagent. Serial tenfold dilutions of the samples (starting from 10 μM when determining antiviral activity or from 100 μM for determining cytotoxicity). As a negative control, 0.1% DMSO was used. The values of EC50 were calculated. The quality of the tests was determined using the following controls: signal-to-noise ratio, integrase inhibitor raltegravir (1 μM), and test reproducibility.

HIV-1 (IIIB strain) = assay: Anti-HIV cytoprotection assay (XTT), HIV-1 IIIB in CEM-SS cells; type: cell-based; details: Human immunodeficiency virus 1, IIIB, CEM-SS, CEM-SS cell line; read-out: Inhibitory activity (EC50) against HIV-1 (IIIB strain)
Method in brief: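 CEM-SS cells infected with a pre-titrated virus dose killing 85–95% of cells by day 6; protection from HIV-induced death read by XTT formazan. Compounds screened in triplicate at 30 and 10 nM, actives retested at 2 nM; AZT six-concentration curve on each plate as positive control.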

HIV [6] = assay: EC50 reported in WO 2014/100323; type: cell-based; details: A4 vs BIC; A5 vs A6
Excerpt: Specifically, only two inhibitors—A4 and A5—are known to comprise a pyridin-2-ylmethyl moiety instead of a benzyl moiety [WO 2014/100323].

[7] = male, Sprague-Dawley, rat plasma, IV 1 mg/kg
[8] = male, Sprague-Dawley, rat plasma, oral 5 mg/kg

Structure (SMILES): O=C(NCc1c(F)cc(F)cc1F)c1cn2c(c(O)c1=O)C(=O)N1[C@H]3CC[C@H](C3)O[C@@H]1C2 [BIC, Bictegravir]
- EC50 (HIV [1]): 2.5 nM
- EC50 (HIV [2]): 1 to 7.5 nM

- solubility at 24 h ([3]; aqueous buffer, pION universal buffer pH 7.4, 24 h, read-out: Solubility, pH 7.4, value): 5 µg/mL (≈ 12.3 µM)
- Solubility, water, value ([3]; deionized water, 24 h): 8 µg/mL (≈ 19.7 µM)
- solubility at 24 h ([3]; deionized water, water, read-out: Solubility in water): 8 µg/mL (≈ 19.7 µM)
- bioavailability ([4]; male, Sprague-Dawley, plasma, rat, oral 5 mg/kg vs IV 1 mg/kg, F=(AUClast PO/5·AUClast IV)·100): 8.8%
- AUC(0-inf) [4, 7]: 232 µg·h/mL
- AUC(0-t) [4, 7]: 141 µg·h/mL
- MRT last [4, 7]: 9.19 h
- half-life [4, 7]: 18.3 h
- Cmax [4, 7]: 17000 ng/mL
- Tmax [4, 7]: 0.08 h
- AUC(0-inf) [4, 8]: 158 µg·h/mL
- AUC(0-t) [4, 8]: 62.3 µg·h/mL
- MRT last [4, 8]: 8.05 h
- half-life [4, 8]: 19.1 h
- concentration at 8 h ([4]; male, Sprague-Dawley, rat plasma, oral 5 mg/kg, 8 h, read-out: C8 h): 4340 ng/mL
- concentration at 24 h ([4]; male, Sprague-Dawley, rat plasma, oral 5 mg/kg, 24 h, read-out: C24 h): 1840 ng/mL
- Cmax [4, 8]: 5210 ng/mL
- Tmax [4, 8]: 4.67 h
- kel ([4]; rat plasma, IV 1 mg/kg): 0.04 h⁻¹
- kel ([4]; rat plasma, oral 5 mg/kg): 0.04 h⁻¹
Structure (SMILES): C[C@H]1CO[C@@H]2Cn3cc(C(=O)NCc4ccc(F)cc4F)c(=O)c(O)c3C(=O)N12 [CAB, Cabotegravir, reference compound]
- EC50 (HIV [2]): 0.25 to 3 nM

Structure (SMILES): C[C@H]1CO[C@@H]2Cn3cc(C(=O)NCc4ncccc4F)c(=O)c(O)c3C(=O)N12 [Compound 1.1.16, (3S,11aR)-6-hydroxy-3-methyl-N-[(3-fluoropyridin-2-yl)methyl]-5,7-dioxo-2,3,5,7,11,11a-hexahydro[1,3]oxazolo[3,2-a]pyrido[1,2-d]pyrazine-8-carboxamide]
- EC50 [5]: 10.5 nM
- EC50 (HIV-1 (IIIB strain)): 10 to 30 nM

Structure (SMILES): C[C@H]1CO[C@@H]2Cn3cc(C(=O)NCc4nccc5ccccc45)c(=O)c(O)c3C(=O)N12 [Compound 1.1.55, (3S,11aR)-6-hydroxy-N-(isoquinolin-1-ylmethyl)-3-methyl-5,7-dioxo-2,3,5,7,11,11a-hexahydro[1,3]oxazolo[3,2-a]pyrido[1,2-d]pyrazine-8-carboxamide]
- EC50 [5]: 14.5 nM
- EC50 (HIV-1 (IIIB strain)): 2 to 10 nM

Structure (SMILES): O=C(NCc1ncccc1C(F)(F)F)c1cn2c(c(O)c1=O)C(=O)N1[C@@H]3CC[C@@H](C3)O[C@H]1C2 [Compound A4, (2S, 5R, 13aS)-8-hydroxy-7,9-dioxo-N-{[3-(trifluoromethyl)pyridin-2-yl]methyl}-2,3,4,5,7,9,13,13a-octahydro-2,5-methanpyrido[1′, 2′: 4,5]pyrazino[2,1-b][1,3]oxazepine-10-carboxamide]
- EC50 (HIV [1]): 33.3 nM
- Decrease in activity relative to the benzyl analogue (times lower) (HIV [6]): 13.3

Structure (SMILES): O=C(NCc1ncc(F)cc1F)c1cn2c(c(O)c1=O)C(=O)N1[C@H]3CC[C@H](C3)[C@@H]1C2 [Compound A5, (1R, 4S, 12aR)-N-[(3,5-difluoropyridin-2-yl)methyl]-7-hydroxy-6,8-dioxo-1,2,3,4,6,8,12,12a-octahydro-1,4-methanodipyrido [1,2-a: 1′, 2′-d]pyrazine-9-carboxamide]
- EC50 (HIV [1]): 17.8 nM
- Decrease in activity relative to the benzyl analogue (times lower) (HIV [6]): almost twofold decrease in activity

Structure (SMILES): C[C@@H]1CCO[C@H]2Cn3cc(C(=O)NCc4ccc(F)cc4F)c(=O)c(O)c3C(=O)N12 [DTG, Dolutegravir]
- EC50 (HIV [2]): 1.1 to 7.4 nM
